The subject of test [1] is cultured human mast cells (CHMC). Put plainly: CHMC low cell density IgE activation: tryptase and LTC4 assays. In kind it is cell-based. The following applies: Low Density CHMC, anti-IgE activation, tryptase readout, read-out: CHMC anti-IgE Tryptase. Put shortly: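 Degranulation measured after 30 min anti-IgE challenge at 37° C of CHMC plated at 1000-1500 cells/well following 1 h preincubation. Readouts: LTC4 by ELISA on donor-specific diluted supernatants, and tryptase activity from a 30 min room-temperature substrate reaction.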

Test [2] shares this test system. Description: CHMC low cell density ionomycin activation: tryptase assay. In kind it is cell-based. As to conditions: Low Density CHMC, ionomycin activation, tryptase readout, read-out: CHMC Ionomycin Tryptase.

These results are taken from patent publication US10828301B2, “2,4-pyrimidinediamine compounds and their uses” (Rigel Pharmaceuticals, Inc, priority 2002, dated 2020).

Consider `OCCOc1cccc(Nc2nc(Nc3cccc(O)c3)ncc2F)c1` [Compound R935170, 5-Fluoro-N4-[3-(2-hydroxyethoxy)phenyl]-N2-(3-hydroxyphenyl)-2,4-pyrimidinediamine], for which the IC50 was 0.673 µM in test [1] (Homo sapiens, Mast cell) and above 10 µM in test [2] (Homo sapiens, Mast cell).

With `CCOC(=O)C(C)(C)c1ccc(Nc2nc(Nc3ccc4c(c3)OCCO4)ncc2F)cc1` [Compound R935172, N4-[4-[Ethoxycarbonyl(dimethyl)methyl]phenyl]-N2-(3,4-ethylenedioxyphenyl)-5-fluoro-2,4-pyrimidinediamine], the IC50 stood at 1.39 µM in test [1] (Homo sapiens, Mast cell) and 6.81 µM in test [2] (Homo sapiens, Mast cell).

Regarding `OCCOc1ccc(Nc2ncc(F)c(Nc3ccc4oc(CO)cc4c3)n2)cc1` [Compound R935174, 5-Fluoro-N2-[4-(2-hydroxyethoxy)phenyl]-N4-(2-hydroxymethylbenzofur-5-yl)-2,4-pyrimidinediamine], the IC50 in test [1] (Homo sapiens, Mast cell) was 1.38 µM; in test [2] (Homo sapiens, Mast cell) it was above 10 µM.

As for `CC(C)Oc1ccc(Nc2nc(Nc3ccc(OCC(O)CO)cc3)ncc2F)cc1` (centres unmarked) [Compound R935175, N2-[4-(2,3-Dihydroxypropoxy)phenyl]-5-fluoro-N4-(4-isopropoxyphenyl)-2,4-pyrimidinediamine], the IC50 is 0.885 µM in test [1] (Homo sapiens, Mast cell) and above 10 µM in test [2] (Homo sapiens, Mast cell).

On to `OCCOc1cccc(Nc2nc(Nc3ccc4c(c3)OCCO4)ncc2F)c1` [Compound R935176, N2-(3,4-Ethylenedioxyphenyl)-5-fluoro-N4-[3-(2-hydroxyethoxy)phenyl]-2,4-pyrimidinediamine], for which the IC50 in test [1] (Homo sapiens, Mast cell) was 1.17 µM; in test [2] (Homo sapiens, Mast cell), above 10 µM.

As for `OCCOc1cccc(Nc2ncc(F)c(Nc3ccc4oc(CO)cc4c3)n2)c1` [Compound R935178, 5-Fluoro-N2-[3-(2-hydroxyethyloxy)phenyl]-N4-(2-hydroxymethylbenzofur-5-yl)-2,4-pyrimidinediamine], the IC50 in test [1] (Homo sapiens, Mast cell) is 0.515 µM; in test [2] (Homo sapiens, Mast cell), above 10 µM.

For the compound `OCC(O)COc1ccc(Nc2ncc(F)c(Nc3cccc(O)c3)n2)cc1` (centres unmarked) [Compound R935180, N2-[4-(2,3-Dihydroxypropoxy)phenyl]-5-fluoro-N4-(3-hydroxyphenyl)-2,4-pyrimidinediamine], the IC50 in test [1] (Homo sapiens, Mast cell) was 1.22 µM; in test [2] (Homo sapiens, Mast cell), above 10 µM.

Regarding `COc1cc(Nc2nc(Nc3cccc(OCCO)c3)ncc2F)cc(OC)c1` [Compound R935181, N4-(3,5-Dimethoxyphenyl)-5-fluoro-N2-[3-(2-hydroxyethoxy)phenyl]-2,4-pyrimidinediamine], the IC50 in test [1] (Homo sapiens, Mast cell) was 1.76 µM; in test [2] (Homo sapiens, Mast cell), above 10 µM.

On to `Cn1nc(I)c2cc(Nc3ncc(F)c(Nc4ccc(I)c(O)c4I)n3)ccc21` [Compound R935221, N4-(2,4-Diiodo-3-hydroxypheny)-5-fluoro-N2-(3-iodo-1-methyl-indazoline-5-yl)-2,4-pyrimidinediamine], for which the IC50 in test [1] and in test [2] was above 10 µM each time.

As for `COC(=O)Cn1ncc2cc(Nc3ncc(F)c(Nc4ccc(OC(C)C)cc4)n3)ccc21` [Compound R935222, 5-Fluoro-N4-(4-isopropoxyphenyl)-N2-[1-(methoxycarbonyl)methyl-indazoline-5-yl]-2,4-pyrimidinediamine], the IC50 in test [1] was 0.52 µM; in test [2], above 10 µM.

`COC(=O)Cn1ncc2cc(Nc3ncc(F)c(Nc4ccc5c(c4)OCCO5)n3)ccc21` [Compound R935223, N4-(3,4-Ethylenedioxyphenyl)-5-fluoro-N2-[1-(methoxycarbonyl)methyl-indazoline-5-yl]-2,4-pyrimidinediamine]: the IC50 in test [1] was 0.469 µM; in test [2], above 10 µM.

With `CNC(=O)Cn1ncc2ccc(Nc3nc(Nc4ccc(OC(C)C)cc4)ncc3F)cc21` [Compound R935224, 5-Fluoro-N2-(4-isopropoxyphenyl)-N4-[1-(N-methylaminocarbonyl)methyl-indazoline-6-yl]-2,4-pyrimidinediamine], the IC50 is 4.58 µM in test [1] and above 10 µM in test [2].

Regarding `CNC(=O)Cn1ncc2ccc(Nc3nc(Nc4ccc5c(c4)OCCO5)ncc3F)cc21` [Compound R935225, N2-(3,4-Ethylenedioxyphenyl)-5-fluoro-N4-[1-(N-methylaminocarbonyl)methyl-indazoline-6-yl]-2,4-pyrimidinediamine], the IC50 is 6.5 µM in test [1] and above 10 µM in test [2].

In the case of `COC(=O)Cn1ncc2cc(Nc3ncc(F)c(Nc4cccc(O)c4)n3)ccc21` [Compound R935237, 5-Fluoro-N4-(3-hydroxyphenyl)-N2-[1-(methoxycarbonyl)methyl-indazoline-5-yl]-2,4-pyrimidinediamine], the values for the IC50 in test [1] and in test [2] were 0.24 µM and above 10 µM, respectively.

Regarding `OCCn1ncc2ccc(Nc3ncc(F)c(Nc4ccc5cnn(CCO)c5c4)n3)cc21` [Compound R935238, N2,N4-Bis[1-(2-hydroxyethyl)indazoline-6-yl]-5-fluoro-2,4-pyrimidinediamine], the IC50 was 1.85 µM in test [1] and above 10 µM in test [2].

As for `Fc1cnc(Nc2ccc3c(c2)OCCO3)nc1Nn1cccc1` [Compound R935277, N2-(3,4-Ethylenedioxyphenyl)-5-Fluoro-N4-(1H-pyrrol-1-yl)-2,4-pyrimidinediamine], the IC50 in test [1] (Homo sapiens, Mast cell) was found to be 22.9 µM; in test [2] (Homo sapiens, Mast cell), 8.9 µM.

As to `Oc1cccc(Nc2ncc(F)c(Nn3cccc3)n2)c1` [Compound R935278, 5-Fluoro-N2-(3-hydroxyphenyl)-N4-(1H-pyrrol-1-yl)-2,4-pyrimidinediamine], the IC50 was 4.75 µM in test [1] (Homo sapiens, Mast cell) and above 10 µM in test [2] (Homo sapiens, Mast cell).

Turning to `COc1ccc(Nc2ncc([N+](=O)[O-])c(Nc3ccc(OC)c(OC)c3)n2)cc1OC` [Compound R940089, N2,N4-Bis-(3,4-dimethoxypenyl)-5-nitro-2,4-pyrimidinediamine], the IC50 in test [1] and in test [2] was above 10 µM in each case.

Regarding `CCOc1ccc(Nc2ncc([N+](=O)[O-])c(Nc3ccc(OCC)cc3)n2)cc1` [Compound R940090, N2,N4-Bis-(4-ethoxypenyl)-5-nitro-2,4-pyrimidinediamine], the IC50 in test [1] and in test [2] was above 10 µM throughout.

Consider `O=[N+]([O-])c1cnc(Nc2ccc3c(c2)OCCO3)nc1Nc1ccc2c(c1)OCCO2` [Compound R940095, N2,N4-Bis-(3,4-ethylenedioxyphenyl)-5-nitro-2,4-pyrimidinediamine], for which the IC50 was above 10 µM in test [1] (Homo sapiens, Mast cell) and above 10 µM in test [2] (Homo sapiens, Mast cell).

Regarding `O=[N+]([O-])c1cnc(Nc2ccc3c(c2)OC(F)(F)O3)nc1Nc1ccc2c(c1)OC(F)(F)O2` [Compound R940100, N2,N4-Bis-(2,2-difluoro-1,3-benzodioxol-5-yl)-5-nitro-2,4-pyrimidinediamine], the IC50 in test [1] (Homo sapiens, Mast cell) is above 10 µM; in test [2] (Homo sapiens, Mast cell), above 10 µM.

`Oc1c(Cl)cc(Nc2ncc(F)c(Nc3cc(Cl)c(O)c(Cl)c3)n2)cc1Cl` [Compound R940215, N2,N4-Bis-(3,5-dichloro-4-hydroxyphenyl)-5-fluoro-2,4-pyrimidinediamine]: the IC50 in test [1] (Homo sapiens, Mast cell) is 0.845 µM; in test [2] (Homo sapiens, Mast cell), above 10 µM.

As for `Cc1c(O)ccc(Nc2ncc(F)c(Nc3ccc(O)c(C)c3C)n2)c1C` [Compound R940217, N2,N4-Bis-(2,3-dimethyl-4-hydroxyphenyl)-5-fluoro-2,4-pyrimidinediamine], the IC50 in test [1] (Homo sapiens, Mast cell) was above 10 µM; in test [2] (Homo sapiens, Mast cell), above 10 µM.

Regarding `CC(=O)Nc1ccc(Nc2ncc(F)c(Nc3ccc(NC(C)=O)cc3)n2)cc1` [Compound R940222, N2,N4-Bis-(4-Acetamidophenyl)-5-fluoro-2,4-pyrimidinediamine], the IC50 in test [1] (Homo sapiens, Mast cell) was above 10 µM; in test [2] (Homo sapiens, Mast cell) it was above 10 µM.

As for `Cc1cc(Nc2nc(Nc3cccc(O)c3)ncc2F)cc(Cl)c1O` [Compound R940235, N4-(3-Chloro-4-hydroxy-5-methylphenyl)-5-fluoro-N2-(3-hydroxyphenyl)-2,4-pyrimidinediamine], the IC50 is 0.8 µM in test [1] (Homo sapiens, Mast cell) and above 10 µM in test [2] (Homo sapiens, Mast cell).

Take `CC(C)(C)c1cccc(Nc2ncc(F)c(Nc3cccc(O)c3)n2)c1` [Compound R940257, N2-(3-tert-Butylphenyl)-5-fluoro-N4-(3-hydroxyphenyl)-2,4-pyrimidinediamine]: the IC50 is 0.667 µM in test [1] (Homo sapiens, Mast cell) and above 10 µM in test [2] (Homo sapiens, Mast cell).

In the case of `COc1ccc(Nc2nc(Nc3cccc(C(C)(C)C)c3)ncc2F)cc1OC` [Compound R940260, N2-(3-tert-Butylphenyl)-N4-(3,4-dimethoxyphenyl)-5-fluoro-2,4-pyrimidinediamine], the IC50 is 1.13 µM in test [1] (Homo sapiens, Mast cell) and above 10 µM in test [2] (Homo sapiens, Mast cell).

With `Oc1cccc(Nc2nc(NCCN3CCN(Cc4ccccc4)CC3)ncc2F)c1` [Compound R940261, N2-[2-(N-Benzylpiperazino)ethyl]-5-fluoro-N4-(3-hydroxyphenyl)-2,4-pyrimidinediamine], the IC50 was above 10 µM in test [1] (Homo sapiens, Mast cell) and above 10 µM in test [2] (Homo sapiens, Mast cell).

In the case of `COc1ccc(Nc2nc(NCCN3CCN(Cc4ccccc4)CC3)ncc2F)cc1OC` [Compound R940262, N2-[2-(N-Benzylpiperazino)ethyl]-N4-(3,4-dimethoxyphenyl)-5-fluoro-2,4-pyrimidinediamine], the IC50 was above 10 µM in test [1] (Homo sapiens, Mast cell) and above 10 µM in test [2] (Homo sapiens, Mast cell).

Consider `Cc1cc(Nc2ncc(F)c(Nc3cccc(C(C)(C)C)c3)n2)cc(Cl)c1O` [Compound R940271, N4-(3-tert-Butylphenyl)-N2-(3-chloro-4-hydroxy-5-methylphenyl)-5-fluoro-2,4-pyrimidinediamine], for which the IC50 in test [1] (Homo sapiens, Mast cell) is 0.401 µM; in test [2] (Homo sapiens, Mast cell), 6.82 µM.

Turning to `CC(C)(C)C(=O)Nc1cccc(Nc2ncc(F)c(Nc3cccc(O)c3)n2)c1` [Compound R940275, N2-(3-tert-Butylcarbonylaminophenyl)-N4-(3-hydroxyphenyl)-5-fluoro-2,4-pyrimidinediamine], the IC50 was 0.862 µM in test [1] (Homo sapiens, Mast cell) and above 10 µM in test [2] (Homo sapiens, Mast cell).
